Test results taken from patent US20240316047A1, “INHIBITORS OF RNA HELICASE DHX9 AND USES THEREOF” (ACCENT THERAPEUTICS, INC., priority 2022, published 2024).

Biological target: Human recombinant DHX9 protein (Homo sapiens (Human), UniProt Q08211)
Assay: DHX9 ATPase assay (ADP-Glo)
Assay type: biochemical
Settings: for IC50: read-out: DHX9 Biochemical Inflection Point

Human recombinant DHX9 protein, sequence (Q08211 whole entry): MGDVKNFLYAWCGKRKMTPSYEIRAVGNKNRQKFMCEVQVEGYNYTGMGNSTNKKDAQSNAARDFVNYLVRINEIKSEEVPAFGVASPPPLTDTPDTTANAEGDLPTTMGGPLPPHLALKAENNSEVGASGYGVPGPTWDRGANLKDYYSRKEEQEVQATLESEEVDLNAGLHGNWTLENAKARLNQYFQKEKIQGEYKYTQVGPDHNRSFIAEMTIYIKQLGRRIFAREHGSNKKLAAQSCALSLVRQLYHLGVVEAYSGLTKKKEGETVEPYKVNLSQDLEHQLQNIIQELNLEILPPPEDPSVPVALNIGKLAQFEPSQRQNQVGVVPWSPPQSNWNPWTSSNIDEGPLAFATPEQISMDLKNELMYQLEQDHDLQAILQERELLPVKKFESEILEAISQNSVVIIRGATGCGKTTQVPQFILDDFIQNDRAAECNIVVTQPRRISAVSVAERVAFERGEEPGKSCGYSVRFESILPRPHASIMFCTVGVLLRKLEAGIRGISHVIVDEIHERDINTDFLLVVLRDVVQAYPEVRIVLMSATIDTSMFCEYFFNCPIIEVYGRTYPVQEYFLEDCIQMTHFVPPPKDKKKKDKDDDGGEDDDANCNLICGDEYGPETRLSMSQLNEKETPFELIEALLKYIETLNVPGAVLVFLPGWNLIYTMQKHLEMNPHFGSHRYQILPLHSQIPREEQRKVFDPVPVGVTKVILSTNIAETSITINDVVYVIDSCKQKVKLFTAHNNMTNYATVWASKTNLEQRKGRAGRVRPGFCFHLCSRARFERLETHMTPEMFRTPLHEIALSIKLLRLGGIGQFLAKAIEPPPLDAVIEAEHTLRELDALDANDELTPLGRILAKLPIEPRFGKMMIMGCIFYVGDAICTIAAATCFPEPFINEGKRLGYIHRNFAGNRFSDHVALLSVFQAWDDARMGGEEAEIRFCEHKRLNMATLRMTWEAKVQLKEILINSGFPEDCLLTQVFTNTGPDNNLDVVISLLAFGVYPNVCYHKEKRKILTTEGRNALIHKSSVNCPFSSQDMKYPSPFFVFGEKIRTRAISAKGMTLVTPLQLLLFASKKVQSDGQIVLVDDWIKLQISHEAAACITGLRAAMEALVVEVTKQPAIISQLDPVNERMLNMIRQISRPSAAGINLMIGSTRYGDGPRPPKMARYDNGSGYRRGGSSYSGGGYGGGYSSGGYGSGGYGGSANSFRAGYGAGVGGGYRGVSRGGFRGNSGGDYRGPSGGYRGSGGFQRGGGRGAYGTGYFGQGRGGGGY

CS(=O)(=O)Nc1cc(Cl)cc(NC(=O)c2cnn(CCCO)c2)c1 [Example 126, N-(3-chloro-5-(methylsulfonamido)phenyl)-1-(3-hydroxypropyl)-1H-pyrazole-4-carboxamide]
DHX9 Biochemical Max Inhibition: 64.5%
IC50: 182 nM

Cc1sc(C(=O)Nc2cc(Cl)cc(NS(C)(=O)=O)c2)cc1-c1c(F)cccc1OCc1ccccc1 [Example 240]
DHX9 Biochemical Max Inhibition: 71%
IC50: 353 nM

CS(=O)(=O)Nc1cc(Cl)cc(NC(=O)c2cnn(-c3ncccc3OCc3cccc(F)c3)c2)c1 [Example 65]
DHX9 Biochemical Max Inhibition: 72.6%
IC50: 5.5 nM

CS(=O)(=O)Nc1cc(Cl)cc(NC(=O)c2cnn(C3CC4(CNC4)C3)c2)c1 [Example 146]
DHX9 Biochemical Max Inhibition: 71.9%
IC50: 30.4 nM

CCOc1cnc(-c2cc(C(=O)Nc3cc(Cl)cc(NS(C)(=O)=O)c3)sc2C)nc1 [Example 335]
DHX9 Biochemical Max Inhibition: 79%
IC50: 10.7 nM

CS(=O)(=O)Nc1cc(F)cc(NC(=O)c2cc(-c3ncccc3OCc3ccccc3)cs2)c1 [Example 214]
DHX9 Biochemical Max Inhibition: 75.9%
IC50: 88 nM

CS(=O)(=O)Nc1cc(Cl)cc(NC(=O)c2cnn(-c3ncccc3OCc3cccc(O)c3)c2)c1 [Example 179]
DHX9 Biochemical Max Inhibition: 72.3%
IC50: 27.2 nM

COc1cnc(-c2cc(C(=O)Nc3cc(Cl)cc(NS(C)(=O)=O)c3)sc2C)nc1 [Example 341]
DHX9 Biochemical Max Inhibition: 83.05%
IC50: 6.2 nM

CS(=O)(=O)Nc1cc(Cl)cc(NC(=O)c2cnn(-c3ncc(N4CCOCC4)cc3OCc3cccnc3)c2)c1 [Example 194]
DHX9 Biochemical Max Inhibition: 64.3%
IC50: 6.8 nM

CS(=O)(=O)Nc1cc(Cl)cc(NC(=O)c2cc(C(F)(F)F)n(-c3ccc(N4CCOCC4)cn3)c2)c1 [Example 271]
DHX9 Biochemical Max Inhibition: 66.1%
IC50: 86.5 nM

Cc1ncc(OCc2cc(F)cc(F)c2)c(-c2cc(C(=O)Nc3cc(Cl)cc(NS(C)(=O)=O)c3)cn2C)n1 [Example 734]
DHX9 Biochemical Max Inhibition: 71.2
IC50: 6.6 nM

CN1CC[C@@H](Oc2cnc(-c3cc(C(=O)Nc4cc(Cl)cc(NS(C)(=O)=O)c4)cn3CC(F)(F)F)nc2)C1 [Example 641]
DHX9 Biochemical Max Inhibition: 71
IC50: 9 nM

CCc1cn2cc(C(=O)Nc3cc(Cl)cc(NS(C)(=O)=O)c3)ccc2n1 [Example 132]
DHX9 Biochemical Max Inhibition: 55.1%
IC50: 295 nM

CS(=O)(=O)Nc1cc(Cl)cc(NC(=O)c2cnn(-c3ccccc3Oc3cccc(F)c3)c2)c1 [Example 265]
DHX9 Biochemical Max Inhibition: 51.8%
IC50: 8050 nM

CCS(=O)(=O)Nc1cc(Cl)cc(NC(=O)c2cc(-c3ncc(N4CC(F)C4)cn3)c(C)s2)c1 [Example 509]
DHX9 Biochemical Max Inhibition: 90.9
IC50: 4 nM

Cc1cc(C(=O)Nc2cc(Cl)cc(NS(C)(=O)=O)c2)cn1-c1ncc(N2CCOC2=O)cn1 [Example 417]
DHX9 Biochemical Max Inhibition: 70.1
IC50: 33.1 nM

Cc1ccc(C#N)cc1-n1cc(C(=O)Nc2cc(Br)cc(NS(C)(=O)=O)c2)cn1 [Example 53]
DHX9 Biochemical Max Inhibition: 52.2%
IC50: 1910 nM

Cc1sc(C(=O)Nc2cc(Cl)cc(NS(C)(=O)=O)c2)cc1-c1ncc(F)cc1-c1ccc(=O)n(C)c1 [Example 606]
DHX9 Biochemical Max Inhibition: 71.8
IC50: 26 nM

CN1CC(Oc2cnc(-c3cc(C(=O)Nc4cc(Cl)cc(NS(C)(=O)=O)c4)cn3CC(F)(F)F)nc2)C1 [Example 613]
DHX9 Biochemical Max Inhibition: 70.3
IC50: 4.2 nM

Cc1cc(C(=O)Nc2cc(Cl)cc(NS(C)(=O)=O)c2)cn1-c1ncc(N2CC(F)(F)C2)cc1C(F)(F)F [Example 407]
DHX9 Biochemical Max Inhibition: 105
IC50: 203 nM

CS(=O)(=O)Nc1cc(Cl)cc(NC(=O)c2cc(-c3ncc(F)cn3)cs2)c1 [Example 338]
DHX9 Biochemical Max Inhibition: 78%
IC50: 15.7 nM

Cn1cc(C(=O)Nc2cc(Cl)cc(NS(C)(=O)=O)c2)cc1-c1ccc(N2CCCC2)cn1 [Example 402]
DHX9 Biochemical Max Inhibition: 76.8
IC50: 45.1 nM

CS(=O)(=O)Nc1cc(Cl)cc(NC(=O)c2cc(-c3ccc(F)cn3)n(CC(F)F)c2)c1 [Example 286]
DHX9 Biochemical Max Inhibition: 72.9%
IC50: 240 nM

Cc1cc(C(=O)Nc2cc(Cl)cc(NS(C)(=O)=O)c2)cn1-c1ncc(OC(C)(C)C)cc1F [Example 662]
DHX9 Biochemical Max Inhibition: 66.1
IC50: 68 nM

CS(=O)(=O)Nc1cc(Cl)cc(NC(=O)c2cc(-c3ncc(F)cn3)n(C3CC3)c2)c1 [Example 712]
DHX9 Biochemical Max Inhibition: 74.2
IC50: 56.2 nM

COCc1ccc(-n2cc(C(=O)Nc3cc(Cl)cc(NS(C)(=O)=O)c3)cc2C)nc1 [Example 447]
DHX9 Biochemical Max Inhibition: 74.9
IC50: 9 nM

COCCOc1ccc(-n2cc(C(=O)Nc3cc(Cl)cc(NS(C)(=O)=O)c3)cc2C)nc1 [Example 442]
DHX9 Biochemical Max Inhibition: 72.7
IC50: 9.3 nM

Cc1sc(C(=O)Nc2cc(Cl)cc(NS(C)(=O)=O)c2)cc1-c1ccc(N2CC(F)(F)C2)cn1 [Example 533]
DHX9 Biochemical Max Inhibition: 83.2
IC50: 7.2 nM

CS(=O)(=O)Nc1cc(I)cc(NC(=O)c2cc(-c3ccccc3)cs2)c1 [Example 16]
DHX9 Biochemical Max Inhibition: 46.3%
IC50: 251 nM

COc1cc(N2CC(F)(F)C2)cnc1-c1cc(C(=O)Nc2cc(Cl)cc(NS(C)(=O)=O)c2)sc1C [Example 535]
DHX9 Biochemical Max Inhibition: 84.2
IC50: 3.4 nM

CS(=O)(=O)Nc1cc(Cl)cc(NC(=O)c2cc3c(F)cccc3s2)c1 [Example 296]
DHX9 Biochemical Max Inhibition: 69.9%
IC50: 125 nM

COc1cc(F)cnc1-c1cc(C(=O)Nc2cc(Cl)cc(NS(C)(=O)=O)c2)sc1C [Example 351]
DHX9 Biochemical Max Inhibition: 80.6%
IC50: 15.5 nM

CS(=O)(=O)Nc1cc(Cl)cc(NC(=O)c2cc(-c3ccc(C(F)(F)F)cn3)cs2)c1 [Example 370]
DHX9 Biochemical Max Inhibition: 64.3%

Cc1sc(C(=O)Nc2cc(Cl)cc(NS(C)(=O)=O)c2)cc1-c1cn(C2CCOCC2)nn1 [Example 692]
DHX9 Biochemical Max Inhibition: 81.5
IC50: 2.7 nM

CS(=O)(=O)Nc1cc(Cl)cc(NC(=O)c2cnn(-c3ncccc3-c3cncnc3)c2)c1 [Example 387]
DHX9 Biochemical Max Inhibition: 58.2%
IC50: 186 nM

Cc1cccnc1-n1cc(C(=O)Nc2cc(Br)cc(NS(C)(=O)=O)c2)cc1C [Example 45]
DHX9 Biochemical Max Inhibition: 67.4%
IC50: 16.4 nM

CCS(=O)(=O)Nc1cc(F)cc(NC(=O)c2cc(Br)cs2)c1 [Example 72]
DHX9 Biochemical Max Inhibition: 67.2%
IC50: 378 nM

Cc1cc(C(=O)Nc2cc(Cl)cc(NS(C)(=O)=O)c2)cn1-c1ccc(N2C3CCC2CC3)cn1 [Example 523]
DHX9 Biochemical Max Inhibition: 64.1
IC50: 31.4 nM

Cn1cc(C(=O)Nc2cc(Cl)cc(NS(C)(=O)=O)c2)cc1-c1ncc(OC(F)F)cn1 [Example 553]
DHX9 Biochemical Max Inhibition: 80.2
IC50: 20.3 nM

CS(=O)(=O)Nc1cc(Cl)cc(NC(=O)c2cnn(CCO)c2)c1 [Example 127]
DHX9 Biochemical Max Inhibition: 66.4%
IC50: 138 nM

Cn1nc(-c2ccccn2)cc1C(=O)Nc1cc(Cl)cc(NS(C)(=O)=O)c1 [Example 141]
DHX9 Biochemical Max Inhibition: 54.9%
IC50: 442 nM

COC1CCN(c2ccc(-c3cc(C(=O)Nc4cc(Cl)cc(NS(C)(=O)=O)c4)cn3C)nc2)CC1 [Example 515, N-(3-chloro-5-methanesulfonamidophenyl)-5-[5-(4-methoxypiperidin-1-yl)pyridin-2-yl]-1-methyl-1H-pyrrole-3-carboxamide]
DHX9 Biochemical Max Inhibition: 73.9
IC50: 1.6 nM

Cc1sc(C(=O)Nc2cc(Cl)cc(NS(C)(=O)=O)c2)cc1-c1ncc(F)cc1-c1cnco1 [Example 705]
DHX9 Biochemical Max Inhibition: 55.6
IC50: 19.2 nM

CN1CC[C@H](Oc2cnc(-c3cc(C(=O)Nc4cc(Cl)cc(NS(C)(=O)=O)c4)cn3C)c(F)c2)C1 [Example 639, N-(3-chloro-5-methanesulfonamidophenyl)-5-(3-fluoro-5-{[(3S)-1-methylpyrrolidin-3-yl]oxy}pyridin-2-yl)-1-methylpyrrole-3-carboxamide]
DHX9 Biochemical Max Inhibition: 59.7
IC50: 7.7 nM

CS(=O)(=O)Nc1cc(Cl)cc(NC(=O)c2cc(-c3ccccc3)n(CC(F)(F)F)c2)c1 [Example 80]
DHX9 Biochemical Max Inhibition: 71.2%
IC50: 493 nM

Cc1cccnc1-n1cc(C(=O)Nc2cc(Cl)cc(NS(C)(=O)=O)c2)cn1 [Example 54]
DHX9 Biochemical Max Inhibition: 66.6%
IC50: 65.6 nM

Cc1sc(C(=O)Nc2cc(Cl)cc(NS(C)(=O)=O)c2)cc1-c1ccc(C2CN(CC(F)(F)F)C2)cn1 [Example 710]
DHX9 Biochemical Max Inhibition: 69
IC50: 14.5 nM

CC(C)Oc1cnc(-c2csc(C(=O)Nc3cc(Cl)cc(NS(C)(=O)=O)c3)c2)nc1 [Example 457]
DHX9 Biochemical Max Inhibition: 58.7
IC50: 20.2 nM

CS(=O)(=O)Nc1cc(Cl)cc(NC(=O)c2cc(N3CCOCC3)cs2)c1 [Example 245]
DHX9 Biochemical Max Inhibition: 71.4%
IC50: 121 nM

Cc1cc(C(=O)Nc2cc(Cl)cc(NS(C)(=O)=O)c2)cn1C1CCCC1 [Example 282]
DHX9 Biochemical Max Inhibition: 72.4%
IC50: 96.4 nM

CCS(=O)(=O)Nc1cc(Cl)cc(NC(=O)c2cc(-c3ccc(N4CC(F)(F)C4)cn3)n(C)c2)c1 [Example 403]
DHX9 Biochemical Max Inhibition: 84.5
IC50: 186 nM

Cc1sc(C(=O)Nc2cc(Cl)cc(NS(C)(=O)=O)c2)cc1-c1ncc(C2CCN(CC(F)(F)F)CC2)cc1F [Example 618]
DHX9 Biochemical Max Inhibition: 66.6
IC50: 59.2 nM

CS(=O)(=O)Nc1cc(Cl)cc(NC(=O)c2cc(-c3ncccc3OCc3cccnc3)n(CC(F)(F)F)c2)c1 [Example 185]
DHX9 Biochemical Max Inhibition: 80.5%
IC50: 4.7 nM

CCc1sc(C(=O)Nc2cc(Cl)cc(NS(C)(=O)=O)c2)cc1-c1ncccc1F [Example 587]
DHX9 Biochemical Max Inhibition: 70.9
IC50: 16.7 nM

CS(=O)(=O)Nc1cc(Cl)cc(NC(=O)c2cnn(-c3ccccc3-c3cncc(F)c3)c2)c1 [Example 257]
DHX9 Biochemical Max Inhibition: 66.5%
IC50: 207 nM

CS(=O)(=O)Nc1cc(Br)cc(NC(=O)c2cc(-c3ccccc3O)cs2)c1 [Example 21]
DHX9 Biochemical Max Inhibition: 61.7%
IC50: 33.2 nM
